Reference: publication PMC9067983, “Identification of highly selective type II kinase inhibitors with chiral peptidomimetic tails” (Journal of Enzyme Inhibition and Medicinal Chemistry, 2022)
Where a SMILES comes first, the peptide text is derived from it. [ ]: non-standard residue; d: D form. The star is where a group is joined. X1 = Cc1ccc(Nc2ncc3c(n2)N(C)C(=O)N(c2cc(C(=O)*)ccc2C)C3)cn1; Aib = CC(C)(N)C(=O)O

Tests used:
Test in all cases: kinase selectivity profiling
Assay type in all cases: biochemical
Settings in all cases: 10µM ATP, read-out: % inhibition (relative to DMSO)
[1] = biological target: T1, ROCK2 (Homo sapiens, UniProt O75116)
T1 construct: purchased Reaction Biology Corp
Description: (§1) Full panel kinase profiling and kinase IC50 measurement were performed by using Reaction Biology Corp. (San Diego, USA).

[2] = biological target: T2, HPK1/MAP4K1 (Homo sapiens, UniProt Q92918)
T2 construct: purchased Reaction Biology Corp
Description: as §1

[3] = biological target: T3, ERK1 (Homo sapiens, UniProt P27361)
T3 construct: purchased Reaction Biology Corp
Description: as §1

[4] = biological target: T4, TAK1 (Homo sapiens, UniProt O43318)
T4 construct: purchased Reaction Biology Corp
Description: as §1

[5] = biological target: T5, p38b/MAPK11 (Homo sapiens, UniProt Q15759)
T5 construct: purchased Reaction Biology Corp
Description: as §1

[6] = biological target: T6, WNK3 (Homo sapiens, UniProt Q9BYP7)
T6 construct: purchased Reaction Biology Corp
Description: as §1

[7] = biological target: T7, LCK2/ICK (Homo sapiens, UniProt Q9UPZ9)
T7 construct: purchased Reaction Biology Corp
Description: as §1

[8] = biological target: T8, TLK1 (Homo sapiens, UniProt Q9UKI8)
T8 construct: purchased Reaction Biology Corp
Description: as §1

[9] = biological target: T9, MEKK1 (Homo sapiens, UniProt Q13233)
T9 construct: purchased Reaction Biology Corp
Description: as §1

[10] = biological target: T10, MYO3A (Homo sapiens, UniProt Q8NEV4)
T10 construct: purchased Reaction Biology Corp
Description: as §1

[11] = biological target: T11, PRKX (Homo sapiens, UniProt P51817)
T11 construct: purchased Reaction Biology Corp
Description: as §1

[12] = biological target: T12, BRAF (Homo sapiens, UniProt P15056)
T12 construct: purchased Reaction Biology Corp
Description: as §1

[13] = biological target: T13, JAK3 (Homo sapiens, UniProt P52333)
T13 construct: purchased Reaction Biology Corp
Description: as §1

[14] = biological target: T14, CAMK1a (Homo sapiens, UniProt Q14012)
T14 construct: purchased Reaction Biology Corp
Description: as §1

[15] = biological target: T15, PKCzeta (Homo sapiens, UniProt Q05513)
T15 construct: purchased Reaction Biology Corp
Description: as §1

[16] = biological target: T16, KHS/MAP4K5 (Homo sapiens, UniProt Q9Y4K4)
T16 construct: purchased Reaction Biology Corp
Description: as §1

[17] = biological target: T17, AKT2 (Homo sapiens, UniProt P31751)
T17 construct: purchased Reaction Biology Corp
Description: as §1

[18] = biological target: T18, LOK/STK10 (Homo sapiens, UniProt O94804)
T18 construct: purchased Reaction Biology Corp
Description: as §1

[19] = biological target: T19, SBK1 (Homo sapiens, UniProt Q52WX2)
T19 construct: purchased Reaction Biology Corp
Description: as §1

[20] = biological target: T20, EPHA7 (Homo sapiens, UniProt Q15375)
T20 construct: purchased Reaction Biology Corp
Description: as §1

[21] = biological target: T21, c-MER (Homo sapiens, UniProt Q12866)
T21 construct: purchased Reaction Biology Corp
Description: as §1

[22] = biological target: T22, CK1epsilon (Homo sapiens, UniProt P49674)
T22 construct: purchased Reaction Biology Corp
Description: as §1

[23] = biological target: T23, MUSK (Homo sapiens, UniProt O15146)
T23 construct: purchased Reaction Biology Corp
Description: as §1

[24] = biological target: T24, CDK18/cyclin Y (PCTK3) (Homo sapiens, UniProt Q07002)
T24 construct: purchased Reaction Biology Corp
Description: as §1

[25] = biological target: T25, LYN B (Homo sapiens, UniProt P07948)
T25 construct: purchased Reaction Biology Corp
Description: as §1

[26] = biological target: T26, ERK2/MAPK1 (Homo sapiens, UniProt P28482)
T26 construct: purchased Reaction Biology Corp
Description: as §1

[27] = biological target: T27, MNK2 (Homo sapiens, UniProt Q9HBH9)
T27 construct: purchased Reaction Biology Corp
Description: as §1

[28] = biological target: T28, MAPKAPK2 (Homo sapiens, UniProt P49137)
T28 construct: purchased Reaction Biology Corp
Description: as §1

[29] = biological target: T29, SRPK2 (Homo sapiens, UniProt P78362)
T29 construct: purchased Reaction Biology Corp
Description: as §1

[30] = biological target: T30, MSSK1/STK23 (Homo sapiens, UniProt Q9UPE1)
T30 construct: purchased Reaction Biology Corp
Description: as §1

[31] = biological target: T31, TBK1 (Homo sapiens, UniProt Q9UHD2)
T31 construct: purchased Reaction Biology Corp
Description: as §1

[32] = biological target: T32, CAMK4 (Homo sapiens, UniProt Q16566)
T32 construct: purchased Reaction Biology Corp
Description: as §1

[33] = biological target: T33, EPHA4 (Homo sapiens, UniProt P54764)
T33 construct: purchased Reaction Biology Corp
Description: as §1

[34] = biological target: T34, CDK6/cyclin D3 (Homo sapiens, UniProt Q00534)
T34 construct: purchased Reaction Biology Corp
Description: as §1

[35] = biological target: T35, FLT3 (Homo sapiens, UniProt P36888)
T35 construct: purchased Reaction Biology Corp
Description: as §1

[36] = biological target: T36, SGK1 (Homo sapiens, UniProt O00141)
T36 construct: purchased Reaction Biology Corp
Description: as §1

[37] = biological target: T37, PASK (Homo sapiens, UniProt Q96RG2)
T37 construct: purchased Reaction Biology Corp
Description: as §1

[38] = biological target: T38, MRCKa/CDC42BPA (Homo sapiens, UniProt Q5VT25)
T38 construct: purchased Reaction Biology Corp
Description: as §1

[39] = biological target: T39, YSK4/MAP3K19 (Homo sapiens, UniProt Q56UN5)
T39 construct: purchased Reaction Biology Corp
Description: as §1

[40] = biological target: T40, CK1a1L (Homo sapiens, UniProt Q8N752)
T40 construct: purchased Reaction Biology Corp
Description: as §1

[41] = biological target: T41, JNK2 (Homo sapiens, UniProt P45984)
T41 construct: purchased Reaction Biology Corp
Description: as §1

[42] = biological target: T42, LIMK1 (Homo sapiens, UniProt P53667)
T42 construct: purchased Reaction Biology Corp
Description: as §1

[43] = biological target: T43, p70S6K/RPS6KB1 (Homo sapiens, UniProt P23443)
T43 construct: purchased Reaction Biology Corp
Description: as §1

T25 sequence (P07948 1-491 isoform P07948-2): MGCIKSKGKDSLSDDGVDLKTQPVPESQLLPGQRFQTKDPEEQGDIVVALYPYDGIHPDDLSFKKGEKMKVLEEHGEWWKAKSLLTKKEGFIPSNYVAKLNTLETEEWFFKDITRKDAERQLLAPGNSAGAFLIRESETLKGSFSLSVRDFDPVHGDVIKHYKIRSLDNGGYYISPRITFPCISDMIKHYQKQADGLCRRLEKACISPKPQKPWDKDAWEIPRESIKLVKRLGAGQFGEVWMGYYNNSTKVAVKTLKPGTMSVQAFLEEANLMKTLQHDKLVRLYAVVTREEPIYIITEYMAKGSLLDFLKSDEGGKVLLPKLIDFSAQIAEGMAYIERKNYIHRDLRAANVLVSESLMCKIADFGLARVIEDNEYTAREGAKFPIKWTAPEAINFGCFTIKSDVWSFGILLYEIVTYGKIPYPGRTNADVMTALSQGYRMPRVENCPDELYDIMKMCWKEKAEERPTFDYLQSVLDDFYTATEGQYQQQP
T16 sequence (Q9Y4K4 whole entry): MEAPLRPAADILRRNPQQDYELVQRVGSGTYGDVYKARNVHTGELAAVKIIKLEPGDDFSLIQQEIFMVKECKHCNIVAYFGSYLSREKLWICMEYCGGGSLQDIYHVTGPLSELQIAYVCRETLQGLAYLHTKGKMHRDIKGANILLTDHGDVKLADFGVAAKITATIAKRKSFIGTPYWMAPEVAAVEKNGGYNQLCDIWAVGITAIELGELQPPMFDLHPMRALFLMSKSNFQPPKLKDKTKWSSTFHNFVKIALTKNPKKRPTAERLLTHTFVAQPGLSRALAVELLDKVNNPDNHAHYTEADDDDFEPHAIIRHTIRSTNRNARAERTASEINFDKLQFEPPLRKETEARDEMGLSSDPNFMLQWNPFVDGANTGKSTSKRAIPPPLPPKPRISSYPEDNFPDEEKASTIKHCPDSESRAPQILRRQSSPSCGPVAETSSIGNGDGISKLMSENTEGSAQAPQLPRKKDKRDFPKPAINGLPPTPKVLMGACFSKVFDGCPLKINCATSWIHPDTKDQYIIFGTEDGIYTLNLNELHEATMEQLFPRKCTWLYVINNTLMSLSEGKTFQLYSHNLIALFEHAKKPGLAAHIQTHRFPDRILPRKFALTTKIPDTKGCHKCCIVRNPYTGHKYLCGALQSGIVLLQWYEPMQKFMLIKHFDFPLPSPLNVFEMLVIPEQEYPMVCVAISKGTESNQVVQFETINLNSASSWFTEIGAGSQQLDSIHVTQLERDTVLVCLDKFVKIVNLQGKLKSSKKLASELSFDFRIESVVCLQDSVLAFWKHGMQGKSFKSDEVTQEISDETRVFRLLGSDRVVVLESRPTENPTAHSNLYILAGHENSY
T32 sequence (Q16566 whole entry): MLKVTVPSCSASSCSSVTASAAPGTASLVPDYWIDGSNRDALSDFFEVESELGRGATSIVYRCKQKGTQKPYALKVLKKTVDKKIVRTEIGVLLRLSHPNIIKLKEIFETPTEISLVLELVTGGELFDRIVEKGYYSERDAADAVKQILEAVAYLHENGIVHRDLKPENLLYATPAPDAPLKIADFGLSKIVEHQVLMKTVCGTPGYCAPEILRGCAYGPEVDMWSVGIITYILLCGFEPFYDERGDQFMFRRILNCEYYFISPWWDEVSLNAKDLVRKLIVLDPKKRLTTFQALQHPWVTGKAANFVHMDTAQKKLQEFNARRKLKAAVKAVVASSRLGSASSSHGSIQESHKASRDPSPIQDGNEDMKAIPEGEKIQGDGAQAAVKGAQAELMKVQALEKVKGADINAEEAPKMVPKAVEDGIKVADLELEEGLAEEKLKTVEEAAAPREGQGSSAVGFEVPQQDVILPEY
T41 sequence (P45984 whole entry): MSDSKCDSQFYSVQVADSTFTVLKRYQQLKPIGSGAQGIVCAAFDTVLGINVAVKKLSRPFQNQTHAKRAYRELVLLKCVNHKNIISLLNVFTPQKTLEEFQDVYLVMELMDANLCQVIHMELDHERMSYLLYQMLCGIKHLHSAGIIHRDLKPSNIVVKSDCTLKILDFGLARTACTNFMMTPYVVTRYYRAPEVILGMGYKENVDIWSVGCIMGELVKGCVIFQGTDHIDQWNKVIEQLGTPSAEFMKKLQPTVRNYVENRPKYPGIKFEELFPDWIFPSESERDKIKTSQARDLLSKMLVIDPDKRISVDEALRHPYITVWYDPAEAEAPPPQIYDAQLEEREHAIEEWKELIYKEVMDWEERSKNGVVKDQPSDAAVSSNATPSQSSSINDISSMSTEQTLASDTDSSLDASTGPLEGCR
T37 sequence (Q96RG2 whole entry): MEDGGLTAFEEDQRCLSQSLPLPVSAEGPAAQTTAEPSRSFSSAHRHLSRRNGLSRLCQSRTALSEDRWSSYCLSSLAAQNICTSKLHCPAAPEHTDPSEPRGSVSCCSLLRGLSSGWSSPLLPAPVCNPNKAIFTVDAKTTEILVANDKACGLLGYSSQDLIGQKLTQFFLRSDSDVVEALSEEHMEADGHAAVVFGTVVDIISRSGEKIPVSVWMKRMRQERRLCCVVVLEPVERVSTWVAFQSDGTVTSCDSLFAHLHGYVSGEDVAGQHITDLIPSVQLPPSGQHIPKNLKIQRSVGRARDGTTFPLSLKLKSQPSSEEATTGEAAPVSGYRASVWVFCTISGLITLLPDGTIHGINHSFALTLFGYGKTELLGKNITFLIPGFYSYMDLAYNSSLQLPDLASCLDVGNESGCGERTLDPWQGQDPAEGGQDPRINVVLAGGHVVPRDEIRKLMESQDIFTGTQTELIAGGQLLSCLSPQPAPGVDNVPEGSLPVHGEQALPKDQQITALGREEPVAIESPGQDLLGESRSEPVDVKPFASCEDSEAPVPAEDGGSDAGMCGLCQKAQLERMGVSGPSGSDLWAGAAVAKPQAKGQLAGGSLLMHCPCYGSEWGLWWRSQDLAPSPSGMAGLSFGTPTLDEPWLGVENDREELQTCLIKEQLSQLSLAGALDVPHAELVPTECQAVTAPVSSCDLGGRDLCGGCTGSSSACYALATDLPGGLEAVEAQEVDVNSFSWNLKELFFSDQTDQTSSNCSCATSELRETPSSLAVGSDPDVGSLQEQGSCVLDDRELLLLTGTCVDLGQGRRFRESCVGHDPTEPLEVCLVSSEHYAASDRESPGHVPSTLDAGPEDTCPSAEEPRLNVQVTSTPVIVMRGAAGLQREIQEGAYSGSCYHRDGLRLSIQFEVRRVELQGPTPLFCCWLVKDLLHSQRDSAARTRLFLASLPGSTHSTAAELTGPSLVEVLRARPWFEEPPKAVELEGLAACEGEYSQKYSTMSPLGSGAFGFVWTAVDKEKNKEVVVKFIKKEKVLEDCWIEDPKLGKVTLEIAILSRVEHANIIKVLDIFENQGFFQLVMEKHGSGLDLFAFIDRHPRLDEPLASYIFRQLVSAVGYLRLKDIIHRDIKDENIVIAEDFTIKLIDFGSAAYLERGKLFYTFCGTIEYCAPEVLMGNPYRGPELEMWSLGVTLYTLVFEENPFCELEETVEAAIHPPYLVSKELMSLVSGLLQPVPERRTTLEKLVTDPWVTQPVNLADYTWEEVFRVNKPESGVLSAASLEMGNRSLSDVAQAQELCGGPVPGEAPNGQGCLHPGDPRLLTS
T30 sequence (Q9UPE1 whole entry): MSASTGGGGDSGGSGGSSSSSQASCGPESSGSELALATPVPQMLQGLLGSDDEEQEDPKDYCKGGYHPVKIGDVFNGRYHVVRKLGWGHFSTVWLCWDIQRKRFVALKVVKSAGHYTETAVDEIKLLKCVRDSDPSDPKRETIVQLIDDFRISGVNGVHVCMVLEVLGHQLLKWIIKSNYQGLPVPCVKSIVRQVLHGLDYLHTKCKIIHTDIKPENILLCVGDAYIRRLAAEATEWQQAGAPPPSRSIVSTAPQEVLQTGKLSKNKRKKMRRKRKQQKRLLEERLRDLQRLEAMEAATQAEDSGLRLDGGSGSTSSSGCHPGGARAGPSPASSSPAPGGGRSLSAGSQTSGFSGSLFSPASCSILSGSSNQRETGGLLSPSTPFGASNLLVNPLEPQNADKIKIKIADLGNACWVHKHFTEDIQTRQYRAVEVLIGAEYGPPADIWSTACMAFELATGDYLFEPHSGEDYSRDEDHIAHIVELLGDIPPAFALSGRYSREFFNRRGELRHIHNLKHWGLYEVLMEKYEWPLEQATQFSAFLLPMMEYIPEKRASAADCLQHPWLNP
T22 sequence (P49674 whole entry): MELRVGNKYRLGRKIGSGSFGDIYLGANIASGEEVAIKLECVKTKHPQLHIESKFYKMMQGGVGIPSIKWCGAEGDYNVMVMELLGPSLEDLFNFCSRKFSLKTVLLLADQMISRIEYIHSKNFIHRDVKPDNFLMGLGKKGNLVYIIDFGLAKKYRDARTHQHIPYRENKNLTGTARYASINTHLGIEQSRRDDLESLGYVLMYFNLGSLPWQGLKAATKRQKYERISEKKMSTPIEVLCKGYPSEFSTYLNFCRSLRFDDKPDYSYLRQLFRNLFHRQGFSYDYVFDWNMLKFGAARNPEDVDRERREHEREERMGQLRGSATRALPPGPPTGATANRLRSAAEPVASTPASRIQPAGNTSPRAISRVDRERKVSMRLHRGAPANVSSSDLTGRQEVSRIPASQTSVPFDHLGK
T36 sequence (O00141 whole entry): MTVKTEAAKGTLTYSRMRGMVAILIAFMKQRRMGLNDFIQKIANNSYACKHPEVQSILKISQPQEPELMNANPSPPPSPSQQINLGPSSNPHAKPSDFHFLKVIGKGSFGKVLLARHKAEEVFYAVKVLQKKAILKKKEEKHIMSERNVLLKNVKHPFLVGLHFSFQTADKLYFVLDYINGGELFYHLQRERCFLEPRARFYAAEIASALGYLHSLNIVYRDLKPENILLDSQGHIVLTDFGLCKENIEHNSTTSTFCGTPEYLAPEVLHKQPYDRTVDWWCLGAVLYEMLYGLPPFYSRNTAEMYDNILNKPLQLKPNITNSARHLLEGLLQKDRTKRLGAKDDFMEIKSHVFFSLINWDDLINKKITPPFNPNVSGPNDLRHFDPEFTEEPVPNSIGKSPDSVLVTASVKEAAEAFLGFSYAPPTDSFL

Cc1ccc(Nc2ncc3c(n2)N(C)C(=O)N(c2cc(C(=O)N[C@H](C(=O)N4CCC[C@H]4C(=O)NC(C)(C)C(=O)N[C@@H](CC(C)C)C(=O)N(C)C)C(C)C)ccc2C)C3)cn1 [7a, (S)-N-(1-(((S)-1-(dimethylamino)-4-methyl-1-oxopentan-2-yl)amino)-2-methyl-1-oxopropan-2-yl)-1-((4-methyl-3-(1-methyl-7-((6-methylpyridin-3-yl)amino)-2-oxo-1,4-dihydropyrimido[4,5-d]pyrimidin-3(2H)-yl)benzoyl)-L-valyl)pyrrolidine-2-carboxamide] (X1-VP[Aib]L-NMe2)
inhibition at 1 µM [1]: 10% | inhibition at 1 µM [2]: 0% | inhibition at 1 µM [3]: 7% | inhibition at 1 µM [4]: 4% | inhibition at 1 µM [5]: 13% | inhibition at 1 µM [6]: 19% | inhibition at 1 µM [7]: 0% | inhibition at 1 µM [8]: 0% | inhibition at 1 µM [9]: 3% | inhibition at 1 µM [10]: 0% | inhibition at 1 µM [11]: 0% | inhibition at 1 µM [12]: 7% | inhibition at 1 µM [13]: 0% | inhibition at 1 µM [14]: 1% | inhibition at 1 µM [15]: 0% | inhibition at 1 µM [16]: 23% | inhibition at 1 µM [17]: 0% | inhibition at 1 µM [18]: 3% | inhibition at 1 µM [19]: 0% | inhibition at 1 µM [20]: 2% | inhibition at 1 µM [21]: 1% | inhibition at 1 µM [22]: 0% | inhibition at 1 µM [23]: 7% | inhibition at 1 µM [24]: 4% | inhibition at 1 µM [25]: 34% | inhibition at 1 µM [26]: 0% | inhibition at 1 µM [27]: 1% | inhibition at 1 µM [28]: 4% | inhibition at 1 µM [29]: 0% | inhibition at 1 µM [30]: 10% | inhibition at 1 µM [31]: 0% | inhibition at 1 µM [32]: 0% | inhibition at 1 µM [33]: 29% | inhibition at 1 µM [34]: 0% | inhibition at 1 µM [35]: 18% | inhibition at 1 µM [36]: 0% | inhibition at 1 µM [37]: 0% | inhibition at 1 µM [38]: 6% | inhibition at 1 µM [39]: 0% | inhibition at 1 µM [40]: 0% | inhibition at 1 µM [41]: 2% | inhibition at 1 µM [42]: 51% | inhibition at 1 µM [43]: 0%
